For the test, the target named is T1, full-length SARS-CoV-2 3CL protease (Severe acute respiratory syndrome coronavirus 2, UniProt P0DTD1).
T1 construct: measures the activity of full-length SARS-CoV-2 3CL protease
The test can be described thus: SARS-CoV-2 Coronavirus 3C Protease FRET Assay (Dabcyl-KTSAVLQ-SGFRKME-Edans substrate). The settings on record: 15 nM enzyme, 25 μM peptide substrate, 60 minutes at 23° C.; Morrison equation fit; read-out: Geometric Mean Ki. The class given is biochemical.

In general, Ki refers to a measure of affinity in units of concentration, obtained from inhibition or displacement. As for `COc1cccc2[nH]c(C(=O)N[C@@H](CC(C)C)C(=O)N[C@@H](C[C@@H]3CCNC3=O)C(=O)COC(=O)CN(C)C)cc12` [Example 4, (3S)-3-({N-[(4-methoxy-1H-indol-2-yl)carbonyl]-L-leucyl}amino)-2-oxo-4-[(3S)-2-oxopyrrolidin-3-yl]butyl N,N-dimethylglycinate], the Ki amounted to 2.98 nM.

For `CCC(=O)OCC(=O)[C@H](C[C@@H]1CCNC1=O)NC(=O)[C@H](CC(C)C)NC(=O)c1cc2c(OC)cccc2[nH]1` [Example 9, (3S)-3-({N-[(4-methoxy-1H-indol-2-yl)carbonyl]-L-leucyl}amino)-2-oxo-4-[(3S)-2-oxopyrrolidin-3-yl]butyl propanoate], the Ki was found to be 33.6 nM.

As to `COc1cccc2[nH]c(C(=O)N[C@@H](CC(C)C)C(=O)N[C@@H](C[C@@H]3CCNC3=O)C(=O)COC(=O)c3ccccc3C)cc12` [Example 11, (3S)-3-({N-[(4-methoxy-1H-indol-2-yl)carbonyl]-L-leucyl}amino)-2-oxo-4-[(3S)-2-oxopyrrolidin-3-yl]butyl 2-methylbenzoate], the Ki is 71.4 nM.

For `COc1cccc2[nH]c(C(=O)N[C@@H](CC(C)C)C(=O)N[C@@H](C[C@@H]3CCNC3=O)C(=O)COC(=O)C3(C)CCCCC3)cc12` [Example 13, (3S)-3-({N-[(4-methoxy-1H-indol-2-yl)carbonyl]-L-leucyl}amino)-2-oxo-4-[(3S)-2-oxopyrrolidin-3-yl]butyl 1-methylcyclohexanecarboxylate], the Ki turned out to be 139 nM.

Regarding `COc1ccccc1C(=O)OCC(=O)[C@H](C[C@@H]1CCNC1=O)NC(=O)[C@H](CC(C)C)NC(=O)c1cc2c(OC)cccc2[nH]1` [Example 15, (3S)-3-({N-[(4-methoxy-1H-indol-2-yl)carbonyl]-L-leucyl}amino)-2-oxo-4-[(3S)-2-oxopyrrolidin-3-yl]butyl 2-methoxybenzoate], the Ki is 147 nM.

Turning to `COc1cccc2[nH]c(C(=O)N[C@@H](CC(C)C)C(=O)N[C@@H](C[C@@H]3CCNC3=O)C(=O)COC(=O)c3ccccc3Cl)cc12` [Example 16, (3S)-3-({N-[(4-methoxy-1H-indol-2-yl)carbonyl]-L-leucyl}amino)-2-oxo-4-[(3S)-2-oxopyrrolidin-3-yl]butyl 2-chlorobenzoate], the Ki is 10.5 nM.

For the compound `COc1cccc2[nH]c(C(=O)N[C@@H](CC(C)C)C(=O)N[C@@H](C[C@@H]3CCNC3=O)C(=O)COC(=O)C3(C)CCN(C)CC3)cc12` [Example 17, (3S)-3-({N-[(4-methoxy-1H-indol-2-yl)carbonyl]-L-leucyl}amino)-2-oxo-4-[(3S)-2-oxopyrrolidin-3-yl]butyl 1,4-dimethylpiperidine-4-carboxylate], the Ki was 17.5 nM.

On to `CC[C@H](C)C(=O)OCC(=O)[C@H](C[C@@H]1CCNC1=O)NC(=O)[C@H](CC(C)C)NC(=O)c1cc2c(OC)cccc2[nH]1` [Example 18, (3S)-3-({N-[(4-methoxy-1H-indol-2-yl)carbonyl]-L-leucyl}amino)-2-oxo-4-[(3S)-2-oxopyrrolidin-3-yl]butyl (2S)-2-methylbutanoate], for which the Ki amounted to 65.7 nM.

With `CC[C@@H](C)C(=O)OCC(=O)[C@H](C[C@@H]1CCNC1=O)NC(=O)[C@H](CC(C)C)NC(=O)c1cc2c(OC)cccc2[nH]1` [Example 19, (3S)-3-({N-[(4-methoxy-1H-indol-2-yl)carbonyl]-L-leucyl}amino)-2-oxo-4-[(3S)-2-oxopyrrolidin-3-yl]butyl (2R)-2-methylbutanoate], the Ki turned out to be 64.8 nM.

In the case of `COc1cccc2[nH]c(C(=O)N[C@@H](CC(C)C)C(=O)N[C@@H](C[C@@H]3CCNC3=O)C(=O)COC(=O)C3(C)CC3)cc12` [Example 21, (3S)-3-({N-[(4-methoxy-1H-indol-2-yl)carbonyl]-L-leucyl}amino)-2-oxo-4-[(3S)-2-oxopyrrolidin-3-yl]butyl 1-methylcyclopropanecarboxylate], the Ki came to 104 nM.

Take `COc1cccc2[nH]c(C(=O)N[C@@H](CC(C)C)C(=O)N[C@@H](C[C@@H]3CCNC3=O)C(=O)COC(=O)c3cnccc3C)cc12` [Example 23, (3S)-3-({N-[(4-methoxy-1H-indol-2-yl)carbonyl]-L-leucyl}amino)-2-oxo-4-[(3S)-2-oxopyrrolidin-3-yl]butyl 4-methylpyridine-3-carboxylate]: the Ki came to 21.2 nM.

Consider `COc1cccc2[nH]c(C(=O)N[C@@H](CC(C)C)C(=O)N[C@@H](C[C@@H]3CCNC3=O)C(=O)COC(=O)c3cccnc3C)cc12` [Example 24, (3S)-3-({N-[(4-methoxy-1H-indol-2-yl)carbonyl]-L-leucyl}amino)-2-oxo-4-[(3S)-2-oxopyrrolidin-3-yl]butyl 2-methylpyridine-3-carboxylate], for which the Ki amounted to 14.2 nM.

On to `COc1cccc2[nH]c(C(=O)N[C@@H](CC(C)C)C(=O)N[C@@H](C[C@@H]3CCNC3=O)C(=O)COC(=O)[C@H]3CCCN3C)cc12` [Example 27, (3S)-3-({N-[(4-methoxy-1H-indol-2-yl)carbonyl]-L-leucyl}amino)-2-oxo-4-[(3S)-2-oxopyrrolidin-3-yl]butyl 1-methyl-D-prolinate], for which the Ki turned out to be 0.0321 nM.

On to `COc1cccc2[nH]c(C(=O)N[C@@H](CC(C)C)C(=O)N[C@@H](C[C@@H]3CCNC3=O)C(=O)COC(=O)[C@@H]3CCCN3C)cc12` [Example 28, (3S)-3-({N-[(4-methoxy-1H-indol-2-yl)carbonyl]-L-leucyl}amino)-2-oxo-4-[(3S)-2-oxopyrrolidin-3-yl]butyl 1-methyl-L-prolinate], for which the Ki turned out to be 2.47 nM.

For `COc1cccc2[nH]c(C(=O)N[C@@H](CC(C)C)C(=O)N[C@@H](C[C@@H]3CCNC3=O)C(=O)COC(=O)c3cccnc3)cc12` [Example 29, (3S)-3-({N-[(4-methoxy-1H-indol-2-yl)carbonyl]-L-leucyl}amino)-2-oxo-4-[(3S)-2-oxopyrrolidin-3-yl]butyl pyridine-3-carboxylate], the Ki was found to be 9.57 nM.

Turning to `COc1cccc2[nH]c(C(=O)N[C@@H](CC(C)C)C(=O)N[C@@H](C[C@@H]3CCNC3=O)C(=O)COC(=O)C3CCN(C)CC3)cc12` [Example 30, (3S)-3-({N-[(4-methoxy-1H-indol-2-yl)carbonyl]-L-leucyl}amino)-2-oxo-4-[(3S)-2-oxopyrrolidin-3-yl]butyl 1-methylpiperidine-4-carboxylate], the Ki worked out at 6.13 nM.

Turning to `COc1cccc2[nH]c(C(=O)N[C@@H](CC(C)C)C(=O)N[C@@H](C[C@@H]3CCNC3=O)C(=O)COC(=O)c3ccncc3)cc12` [Example 34, (3S)-3-({N-[(4-methoxy-1H-indol-2-yl)carbonyl]-L-leucyl}amino)-2-oxo-4-[(3S)-2-oxopyrrolidin-3-yl]butyl pyridine-4-carboxylate], the Ki was 0.598 nM.

Turning to `COc1cccc2[nH]c(C(=O)N[C@@H](CC(C)C)C(=O)N[C@@H](C[C@@H]3CCNC3=O)C(=O)COC(=O)c3ccccn3)cc12` [Example 35, (3S)-3-({N-[(4-methoxy-1H-indol-2-yl)carbonyl]-L-leucyl}amino)-2-oxo-4-[(3S)-2-oxopyrrolidin-3-yl]butyl pyridine-2-carboxylate], the Ki is 4.43 nM.

On to `COc1cccc2[nH]c(C(=O)N[C@@H](CC(C)C)C(=O)N[C@@H](C[C@@H]3CCNC3=O)C(=O)COC(=O)[C@H]3CCCCN3C)cc12` [Example 37, (3S)-3-({N-[(4-methoxy-1H-indol-2-yl)carbonyl]-L-leucyl}amino)-2-oxo-4-[(3S)-2-oxopyrrolidin-3-yl]butyl (2R)-1-methylpiperidine-2-carboxylate], for which the Ki amounted to 1.42 nM.

As to `COc1cccc2[nH]c(C(=O)N[C@@H](CC(C)C)C(=O)N[C@@H](C[C@@H]3CCNC3=O)C(=O)COC(=O)c3cn(C)nc3C)cc12` [Example 39, (3S)-3-({N-[(4-methoxy-1H-indol-2-yl)carbonyl]-L-leucyl}amino)-2-oxo-4-[(3S)-2-oxopyrrolidin-3-yl]butyl 1,3-dimethyl-1H-pyrazole-4-carboxylate], the Ki is 91.9 nM.

For `COc1cccc2[nH]c(C(=O)N[C@@H](CC(C)C)C(=O)N[C@@H](C[C@@H]3CCNC3=O)C(=O)COC(=O)c3ncn(C)c3C)cc12` [Example 40, (3S)-3-({N-[(4-methoxy-1H-indol-2-yl)carbonyl]-L-leucyl}amino)-2-oxo-4-[(3S)-2-oxopyrrolidin-3-yl]butyl 1,5-dimethyl-1H-imidazole-4-carboxylate], the Ki came to 306 nM.

Consider `COc1cccc2[nH]c(C(=O)N[C@@H](CC(C)C)C(=O)N[C@@H](C[C@@H]3CCNC3=O)C(=O)COC(=O)c3ccnn3C)cc12` [Example 42, (3S)-3-({N-[(4-methoxy-1H-indol-2-yl)carbonyl]-L-leucyl}amino)-2-oxo-4-[(3S)-2-oxopyrrolidin-3-yl]butyl 1-methyl-1H-pyrazole-5-carboxylate], for which the Ki was found to be 5.25 nM.

`COc1cccc2[nH]c(C(=O)N[C@@H](CC(C)C)C(=O)N[C@@H](C[C@@H]3CCNC3=O)C(=O)COC(=O)c3ccn(C)n3)cc12` [Example 43, (3S)-3-({N-[(4-methoxy-1H-indol-2-yl)carbonyl]-L-leucyl}amino)-2-oxo-4-[(3S)-2-oxopyrrolidin-3-yl]butyl 1-methyl-1H-pyrazole-3-carboxylate]: the Ki came out at 118 nM.

`COc1cccc2[nH]c(C(=O)N[C@@H](CC(C)C)C(=O)N[C@@H](C[C@@H]3CCNC3=O)C(=O)COC(=O)c3cnn(C)c3)cc12` [Example 44, (3S)-3-({N-[(4-methoxy-1H-indol-2-yl)carbonyl]-L-leucyl}amino)-2-oxo-4-[(3S)-2-oxopyrrolidin-3-yl]butyl 1-methyl-1H-pyrazole-4-carboxylate]: the Ki stood at 90.6 nM.

Take `COc1cccc2[nH]c(C(=O)N[C@@H](CC(C)C)C(=O)N[C@@H](C[C@@H]3CCNC3=O)C(=O)COC(=O)c3cncn3C)cc12` [Example 45, (3S)-3-({N-[(4-methoxy-1H-indol-2-yl)carbonyl]-L-leucyl}amino)-2-oxo-4-[(3S)-2-oxopyrrolidin-3-yl]butyl 1-methyl-1H-imidazole-5-carboxylate]: the Ki stood at 40.7 nM.

Values taken from patent US12358897B2, “Compounds and method of treating COVID-19” (Pfizer Inc., priority 2020, dated 2025).
